According to the supplement of paper PMC10307832:

Key:
Assay in all cases: relative viability (nuclei count vs DMSO), 5 days (fraction); higher = more cells survive
NCI-H2347 = system: NCI-H2347
Summary of the method: (§1)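 After 5 days of treatment, lung cancer cells in 1536-well plates were fixed and stained in a single step (final 0.05% Triton X-100, 1% formaldehyde, 1 ug/ml Hoechst) and their nuclei counted on 4× images. Treatment had been applied by pin tool the day after seeding as one drug alone or as a fixed anchor-drug dose with five library-drug doses (not always all listed) in √10 steps. Relative viability is the nuclei count of treated wells divided by that of vehicle wells, and values are medians of duplicate plates.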

EPLC-272H = system: EPLC-272H
Summary of the method: as §1

H3255 = system: H3255
Summary of the method: as §1

NCI-H650 = system: NCI-H650
Summary of the method: as §1

201T = system: 201T
Summary of the method: as §1

COR-L 105 = system: COR-L 105
Summary of the method: as §1

NCI-H2087 = system: NCI-H2087
Summary of the method: as §1

NCI-H2126 = system: NCI-H2126
Summary of the method: as §1

NCI-H2405 = system: NCI-H2405
Summary of the method: as §1

HCC-78 = system: HCC-78
Summary of the method: as §1

LC-2-ad = system: LC-2-ad
Summary of the method: as §1

NCI-H1666 = system: NCI-H1666
Summary of the method: as §1

LCLC-97TM1 = system: LCLC-97TM1
Summary of the method: as §1

NCI-H23 = system: NCI-H23
Summary of the method: as §1

NCI-H322M = system: NCI-H322M
Summary of the method: as §1

HCC-827 = system: HCC-827
Summary of the method: as §1

NCI-H1915 = system: NCI-H1915
Summary of the method: as §1

NCI-H520 = system: NCI-H520
Summary of the method: as §1

NCI-H661 = system: NCI-H661
Summary of the method: as §1

PC-14 = system: PC-14
Summary of the method: as §1

RERF-LC-KJ = system: RERF-LC-KJ
Summary of the method: as §1

NCI-H647 = system: NCI-H647
Summary of the method: as §1

O=C(O)c1ccc(-c2c[nH]c3ncc(-c4ccccc4)cc23)cc1C1CCCC1 + C[C@]1(O)C[C@@H](c2nc(-c3ccc4ccc(-c5ccccc5)nc4c3)c3c(N)nccn32)C1 [Linsitinib] (partner 1 µM) gave a relative viability (NCI-H2347; first compound 0.04 µM) of 0.975, a relative viability (NCI-H2347; first compound 0.1265 µM) of 1.11 and a relative viability (NCI-H2347; first compound 0.4 µM) of 0.927. The relative viability (NCI-H2347; first compound 1.265 µM) was 0.67, the relative viability (EPLC-272H; first compound 0.04 µM) was 1.16 and the relative viability (EPLC-272H; first compound 0.1265 µM) was 1.19. For the same molecule, the relative viability (EPLC-272H; first compound 0.4 µM) was 1.42, the relative viability (EPLC-272H; first compound 1.265 µM) was 0.857 and the relative viability (H3255; first compound 0.04 µM) was 1. The relative viability (H3255; first compound 0.1265 µM) was 0.994, the relative viability (H3255; first compound 0.4 µM) was 0.935 and the relative viability (H3255; first compound 1.265 µM) was 0.909. The relative viability (NCI-H650; first compound 0.04 µM) was 0.844, the relative viability (NCI-H650; first compound 0.1265 µM) was 1.04 and the relative viability (NCI-H650; first compound 0.4 µM) was 0.861. For the same molecule, the relative viability (NCI-H650; first compound 1.265 µM) was 0.679, the relative viability (201T; first compound 0.04 µM) was 1.07 and the relative viability (201T; first compound 0.1265 µM) was 1.06. For the same molecule, the relative viability (201T; first compound 0.4 µM) was 0.979, the relative viability (201T; first compound 1.265 µM) was 0.946 and the relative viability (COR-L 105; first compound 0.04 µM) was 1.07. It also gave a relative viability (COR-L 105; first compound 0.1265 µM) of 0.919, a relative viability (COR-L 105; first compound 0.4 µM) of 1 and a relative viability (COR-L 105; first compound 1.265 µM) of 0.92. The relative viability (NCI-H2087; first compound 0.04 µM) was 0.959, the relative viability (NCI-H2087; first compound 0.1265 µM) was 1.03 and the relative viability (NCI-H2087; first compound 0.4 µM) was 0.97. For the same molecule, the relative viability (NCI-H2087; first compound 1.265 µM) was 0.859, the relative viability (NCI-H2126; first compound 0.04 µM) was 0.723 and the relative viability (NCI-H2126; first compound 0.1265 µM) was 0.732. For the same molecule, the relative viability (NCI-H2126; first compound 0.4 µM) was 0.7, the relative viability (NCI-H2126; first compound 1.265 µM) was 0.623 and the relative viability (NCI-H2405; first compound 0.04 µM) was 0.916. It also gave a relative viability (NCI-H2405; first compound 0.1265 µM) of 0.932, a relative viability (NCI-H2405; first compound 0.4 µM) of 0.908 and a relative viability (NCI-H2405; first compound 1.265 µM) of 0.603. The relative viability (HCC-78; first compound 0.04 µM) was 0.431, the relative viability (HCC-78; first compound 0.1265 µM) was 0.571 and the relative viability (HCC-78; first compound 0.4 µM) was 0.545. The relative viability (HCC-78; first compound 1.265 µM) was 0.534, the relative viability (LC-2-ad; first compound 0.04 µM) was 0.81 and the relative viability (LC-2-ad; first compound 0.1265 µM) was 0.885. For the same molecule, the relative viability (LC-2-ad; first compound 0.4 µM) was 0.775, the relative viability (LC-2-ad; first compound 1.265 µM) was 0.425 and the relative viability (NCI-H1666; first compound 0.04 µM) was 0.755. For the same molecule, the relative viability (NCI-H1666; first compound 0.1265 µM) was 0.829, the relative viability (NCI-H1666; first compound 0.4 µM) was 0.703 and the relative viability (NCI-H1666; first compound 1.265 µM) was 0.81. The relative viability (LCLC-97TM1; first compound 0.04 µM) was 0.204, the relative viability (LCLC-97TM1; first compound 0.1265 µM) was 0.218 and the relative viability (LCLC-97TM1; first compound 0.4 µM) was 0.175. It also gave a relative viability (LCLC-97TM1; first compound 1.265 µM) of 0.166, a relative viability (NCI-H23; first compound 0.04 µM) of 0.545 and a relative viability (NCI-H23; first compound 0.1265 µM) of 0.617. The relative viability (NCI-H23; first compound 0.4 µM) was 0.559, the relative viability (NCI-H23; first compound 1.265 µM) was 0.451 and the relative viability (NCI-H322M; first compound 0.04 µM) was 0.913. The relative viability (NCI-H322M; first compound 0.1265 µM) was 0.911, the relative viability (NCI-H322M; first compound 0.4 µM) was 0.92 and the relative viability (NCI-H322M; first compound 1.265 µM) was 0.791. It also gave a relative viability (HCC-827; first compound 0.04 µM) of 0.966, a relative viability (HCC-827; first compound 0.1265 µM) of 0.976 and a relative viability (HCC-827; first compound 0.4 µM) of 0.884. It also gave a relative viability (HCC-827; first compound 1.265 µM) of 0.702, a relative viability (NCI-H1915; first compound 0.04 µM) of 1.06 and a relative viability (NCI-H1915; first compound 0.1265 µM) of 1.1. The relative viability (NCI-H1915; first compound 0.4 µM) was 0.946, the relative viability (NCI-H1915; first compound 1.265 µM) was 0.799 and the relative viability (NCI-H520; first compound 0.04 µM) was 0.833. It also gave a relative viability (NCI-H520; first compound 0.1265 µM) of 1.13, a relative viability (NCI-H520; first compound 0.4 µM) of 0.904 and a relative viability (NCI-H520; first compound 1.265 µM) of 0.712. The relative viability (NCI-H661; first compound 0.04 µM) was 0.576, the relative viability (NCI-H661; first compound 0.1265 µM) was 0.603 and the relative viability (NCI-H661; first compound 0.4 µM) was 0.572. It also gave a relative viability (NCI-H661; first compound 1.265 µM) of 0.736, a relative viability (PC-14; first compound 0.04 µM) of 0.937 and a relative viability (PC-14; first compound 0.1265 µM) of 0.947. The relative viability (PC-14; first compound 0.4 µM) was 1.01, the relative viability (PC-14; first compound 1.265 µM) was 0.798 and the relative viability (RERF-LC-KJ; first compound 0.04 µM) was 0.86. For the same molecule, the relative viability (RERF-LC-KJ; first compound 0.1265 µM) was 0.862, the relative viability (RERF-LC-KJ; first compound 0.4 µM) was 0.906 and the relative viability (RERF-LC-KJ; first compound 1.265 µM) was 0.807. For the same molecule, the relative viability (NCI-H647; first compound 0.04 µM) was 1.18, the relative viability (NCI-H647; first compound 0.1265 µM) was 1.18 and the relative viability (NCI-H647; first compound 0.4 µM) was 1.02. It also gave a relative viability (NCI-H647; first compound 1.265 µM) of 1.03.
